Test results: patent US20080153818A1, “METHODS FOR PREVENTING INFLAMMATION DURING SURGERY” (priority 2006, published 2008)

Tests used:
[1] = system: laser-induced choroidal neovascularization (CNV); assay: Mouse laser-induced CNV, prevention, intravitreal injection; type: in vivo, C57BL/6J mice
Protocol: (§1) METHODS. CNV was generated by laser-induced rupture of Bruch's membrane. Briefly, 4 to 5 week old male C57BL/6J mice were anesthetized using intraperitoneal administration of ketamine hydrochloride (100 mg/kg) and xylazine (5 mg/kg) and the pupils of both eyes dilated with topical ocular instillation of 1% tropicamide and 2.5% Mydfin®. One drop of topical cellulose (Gonioscopic®) was used to lubricate the cornea. A hand-held cover slip was applied to the cornea and used as a contact lens to aid visualization of the fundus. Three to four retinal burns were placed in randomly assigned eye (right or left eye for each mouse) using the Alcon 532 nm EyeLite laser with a slit lamp delivery system. The laser burns were used to generate a rupture in Bruch's membrane, which was indicated ophthalmoscopically by the formation of a bubble under the retina. Only mice with laser burns that produced three bubbles per eye were included in the study. Burns were typically placed at the 3, 6, 9 or 12 o'clock positions in the posterior pole of the retina, avoiding the branch retinal arteries and veins.
(§2) Each mouse was randomly assigned into one of the following treatment groups: noninjected controls, sham-injected controls, vehicle-injected mice, or one of three RTKi-injected groups. […]

[2] = system: diabetes-induced retinal vascular permeability (STZ rat model); assay: STZ diabetic rat retinal vascular permeability, oral gavage; type: in vivo
Protocol: METHODS. Diabetes was induced in male Long-Evans rats with 65 mg/kg streptozotocin (STZ) after an overnight fast. Upon confirmation of diabetes (blood glucose >250 mg/dl), treatment was initiated by oral gavage. Non-diabetic (NDM) and diabetic (DM) rats received oral gavage of either vehicle or RTK inhibitor at 1.5 or 5 mg/kg/d BID. After 2 weeks, jugular vein catheters were implanted 1 day prior to experimentation for the infusion of indicator dye. Retinal vascular permeability, RVP, was measured using Evan's blue albumin permeation (45 mg/kg) after a 2 hour circulation period.

[3] = system: preretinal neovascularization (NV) in the rat OIR model; assay: Rat OIR model, oral gavage; type: in vivo, Sprague-Dawley rats
Protocol: Immediately following euthanasia, retinas from all rat pups were harvested, fixed in 10% neutral buffered formalin for 24 hours, subjected to ADPase staining, and fixed onto slides as whole mounts. Digital images were acquired from each retinal flat mount that was adequately prepared. Computerized image analysis was used to obtain a NV clockhour score from each readable sample. Each clockhour out of 12 total per retina was assessed for the presence or absence of preretinal NV. Statistical comparisons using median scores for NV clockhours from each treatment group were utilized in nonparametric analyses. Each noninjected pup represented one NV score by taking the average value of both eyes and was used in comparisons against each dosage group. Because the pups were randomly assigned and no difference was observed between oxygen-exposed control pups from all litters, the NV scores were combined for all treatment groups. P≦0.05 was considered statistically significant.
METHODS. Pregnant Sprague-Dawley rats were received at 14 days gestation and subsequently gave birth on Day 22±1 of gestation. Immediately following parturition, pups were pooled and randomized into separate litters (n=17 pups/litter), placed into separate shoebox cages inside oxygen delivery chamber, and subjected to an oxygen-exposure profile from Day 0 to Day 14 postpartum. Litters were then placed into room air from Day 14/0 through Day 14/6 (days 14-20 postpartum). Additionally on Day 14/0, each pup was randomly assigned as oxygen-exposed controls, vehicle treated, or drug-treated at 1.5, 5, 10 mg/kg, p.o., BID. At Day 14/6 (20 days postpartum), all animals in both studies were euthanized and retina whole mounts were prepared as described in Example 1 above.

[4] = system: laser-induced choroidal neovascularization (CNV); assay: Mouse laser-induced CNV, prevention paradigm, oral gavage; type: in vivo; conditions: for inhibition of CNV (in words): prevention paradigm, 14 days
[5] = system: existing laser-induced choroidal neovascularization (CNV); assay: Mouse laser-induced CNV, regression of existing CNV, intravitreal injection at day 7; type: in vivo; conditions: single intravitreal injection
Protocol: as §1, §2
METHODS. […] Choroidal flat mounts were analyzed as described above in Example 3.

[6] = system: preretinal neovascularization (NV) in the rat model of oxygen-induced retinopathy (OIR); assay: Rat oxygen-induced retinopathy (OIR) model, single intravitreal injection; type: in vivo, Sprague-Dawley rats
Description: METHODS. Pregnant Sprague-Dawley rats were received at 14 days gestation and subsequently gave birth on Day 22±1 of gestation. Immediately following parturition, pups were pooled and randomized into separate litters (n=17 pups/litter), placed into separate shoebox cages inside oxygen delivery chamber, and subjected to an oxygen-exposure profile from Day 0-14 postpartum. Litters were then placed into room air from Day 14/0 through Day 14/6 (days 14-20 postpartum). Additionally on Day 14/0, each pup was randomly assigned as an oxygen-exposed control or into various treatment groups. For those randomized into an injection treatment group: one eye received a 5 μl intravitreal injection of 0.1%, 0.3%, 0.6%, or 1% RTKi and the contralateral eye received a 5 μl intravitreal injection of vehicle. At Day 14/6 (20 days postpartum), all animals in both studies were euthanized.
Immediately following euthanasia, retinas from all rat pups were harvested, fixed in 10% neutral buffered formalin for 24 hours, subjected to ADPase staining, and fixed onto slides as whole mounts. Digital images were acquired from each retinal flat mount that was adequately prepared. Computerized image analysis was used to obtain a NV clockhour score from each readable sample. Each clockhour out of 12 total per retina was assessed for the presence or absence of preretinal NV. […]

[7] = system: existing laser-induced choroidal neovascularization (CNV); assay: Mouse laser-induced CNV, regression paradigm, oral gavage from day 7; type: in vivo; conditions: 3 mg/kg/day oral from day 7
[8] = NDM and DM groups, oral gavage, 2 weeks

## Cc1ccc(F)c(NC(=O)Nc2ccc(-c3cccc4[nH]nc(N)c34)cc2)c1 [Compound 86, N-[4-[3-amino-1H-indazol-4-yl]phenyl]-N′-(2-fluoro-5-methylphenyl)urea]
[1]; 0.3% RTKi, intravitreal
  difference in CNV versus vehicle injected eyes (in words): marginal statistical difference
[1]; single intravitreal injection
  effect on laser-induced CNV (in words, FIG. 3): inhibits
[2]; NDM (non-diabetic) rats, 5 mg/kg/d oral gavage
  RVP (in words): unchanged
[2]; [8]
  systemic or ERG side effects: no observed systemic or ERG side effects
  tolerability of oral treatment: well tolerated
[3]; 3 mg/kg/day p.o.
  decrease in NV (in words): did not have a significant decrease
[3]; 20 mg/kg/day p.o.
  inhibition of preretinal NV (in words): complete inhibition
[3]; oral gavage
  effect on preretinal neovascularization (in words, FIG. 2): prevents
[4]; oral gavage
  effect on laser-induced CNV (in words, FIG. 6): inhibits
[4]; 3 mg/kg/day oral gavage
  inhibition of CNV (in words): no significant inhibition
[4]; 20 mg/kg/d oral gavage
  inhibition of CNV (in words): complete inhibition
[5]
  effect on existing laser-induced CNV (in words, FIG. 4): induces regression
[6]; 0.1% treated eyes, intravitreal
  efficacy against preretinal NV (in words): Efficacy was not observed
[6]; single intravitreal injection
  effect on preretinal neovascularization (in words, FIG. 1): inhibits
[7]
  regression of existing CNV (in words): did not show a significant regression
